From patent US20140093592A1, “[…] THE TREATMENT OF TREATMENT-[…] TREATMENT-RESISTANT DEPRESSION” (Janssen Pharmaceutica NV, priority 2012, published 2014)

How the values were obtained:
[1] = system: adult subjects with treatment-resistant depression (TRD); assay: Clinician-Assessed Dissociative Symptom Scale (CADSS) total score, same clinical study
[2] = system: adult subjects with treatment-resistant depression (TRD); assay: Brief Psychiatric Rating Scale (BPRS) total score, same clinical study; conditions: 0.40 mg/kg
[3] = system: patients with major depressive disorders; conditions: cited from earlier work
[4] = 0.20 mg/kg, Day 1 (4 Hour), baseline Day 1
[5] = 0.20 mg/kg, Day 1 (40 Min), baseline Day 1
[6] = 0.20 mg/kg, Day 2, baseline Day 1
[7] = 0.20 mg/kg, Day 4 (4 Hour), baseline Day 4
[8] = 0.20 mg/kg, Day 4 (40 Min), baseline Day 4
[9] = 0.20 mg/kg, Day 5, baseline Day 4
[10] = 0.40 mg/kg, Day 1 (4 Hour), baseline Day 1
[11] = 0.40 mg/kg, Day 1 (40 Min), baseline Day 1
[12] = 0.40 mg/kg, Day 2, baseline Day 1
[13] = 0.40 mg/kg, Day 4 (4 Hour), baseline Day 4
[14] = 0.40 mg/kg, Day 4 (40 Min), baseline Day 4
[15] = 0.40 mg/kg, Day 5, baseline Day 4

Compound: CN[C@]1(c2ccccc2Cl)CCCCC1=O.Cl [Esketamine, (S)-2-(2-chlorophenyl)-2-(methylamino)cyclohexanone hydrochloride]
- CADSS total score, Mean (SD) ([1]; 0.20 mg/kg, Day 1 (4 Hour)): 0.00 (0.000)
- CADSS total score, Median ([1]; 0.20 mg/kg, Day 1 (4 Hour)): 0.00
- CADSS total score change from baseline, Mean (SD) [1, 4]: 0.00 (0.000)
- CADSS total score change from baseline, Median [1, 4]: 0.00
- CADSS total score, Mean (SD) ([1]; 0.20 mg/kg, Day 1 (40 Min)): 15.56 (24.653)
- CADSS total score, Median ([1]; 0.20 mg/kg, Day 1 (40 Min)): 4.00
- CADSS total score change from baseline, Mean (SD) [1, 5]: 15.56 (24.653)
- CADSS total score change from baseline, Median [1, 5]: 4.00
- CADSS total score, Mean (SD) ([1]; 0.20 mg/kg, Day 1 (Predose)): 0.00 (0.000)
- CADSS total score, Median ([1]; 0.20 mg/kg, Day 1 (Predose)): 0.00
- CADSS total score, Mean (SD) ([1]; 0.20 mg/kg, Day 2): 0.22 (0.667)
- CADSS total score, Median ([1]; 0.20 mg/kg, Day 2): 0.00
- CADSS total score change from baseline, Mean (SD) [1, 6]: 0.22 (0.667)
- CADSS total score change from baseline, Median [1, 6]: 0.00
- CADSS total score, Mean (SD) ([1]; 0.20 mg/kg, Day 4 (4 Hour)): 0.22 (0.667)
- CADSS total score, Median ([1]; 0.20 mg/kg, Day 4 (4 Hour)): 0.00
- CADSS total score change from baseline, Mean (SD) [1, 7]: 0.22 (0.667)
- CADSS total score change from baseline, Median [1, 7]: 0.00
- CADSS total score, Mean (SD) ([1]; 0.20 mg/kg, Day 4 (40 Min)): 6.38 (7.963)
- CADSS total score, Median ([1]; 0.20 mg/kg, Day 4 (40 Min)): 4.00
- CADSS total score change from baseline, Mean (SD) [1, 8]: 6.38 (7.963)
- CADSS total score change from baseline, Median [1, 8]: 4.00
- CADSS total score, Mean (SD) ([1]; 0.20 mg/kg, Day 4 (Predose)): 0.00 (0.000)
- CADSS total score, Median ([1]; 0.20 mg/kg, Day 4 (Predose)): 0.00
- CADSS total score, Mean (SD) ([1]; 0.20 mg/kg, Day 5): 0.11 (0.333)
- CADSS total score, Median ([1]; 0.20 mg/kg, Day 5): 0.00
- CADSS total score change from baseline, Mean (SD) [1, 9]: 0.11 (0.333)
- CADSS total score change from baseline, Median [1, 9]: 0.00
- CADSS total score, Mean (SD) ([1]; 0.40 mg/kg, Day 1 (4 Hour)): 0.36 (1.206)
- CADSS total score, Median ([1]; 0.40 mg/kg, Day 1 (4 Hour)): 0.00
- CADSS total score change from baseline, Mean (SD) [1, 10]: −0.55 (1.036)
- CADSS total score change from baseline, Median [1, 10]: 0.00
- CADSS total score, Mean (SD) ([1]; 0.40 mg/kg, Day 1 (40 Min)): 22.00 (9.192)
- CADSS total score, Median ([1]; 0.40 mg/kg, Day 1 (40 Min)): 23.00
- CADSS total score change from baseline, Mean (SD) [1, 11]: 21.56 (9.645)
- CADSS total score change from baseline, Median [1, 11]: 23.00
- CADSS total score, Mean (SD) ([1]; 0.40 mg/kg, Day 1 (Predose)): 0.91 (1.921)
- CADSS total score, Median ([1]; 0.40 mg/kg, Day 1 (Predose)): 0.00
- CADSS total score, Mean (SD) ([1]; 0.40 mg/kg, Day 2): 0.73 (1.849)
- CADSS total score, Median ([1]; 0.40 mg/kg, Day 2): 0.00
- CADSS total score change from baseline, Mean (SD) [1, 12]: −0.18 (1.168)
- CADSS total score change from baseline, Median [1, 12]: 0.00
- CADSS total score, Mean (SD) ([1]; 0.40 mg/kg, Day 4 (4 Hour)): 3.21 (8.929)
- CADSS total score, Median ([1]; 0.40 mg/kg, Day 4 (4 Hour)): 0.00
- CADSS total score change from baseline, Mean (SD) [1, 13]: 3.16 (8.808)
- CADSS total score change from baseline, Median [1, 13]: 0.00
- CADSS total score, Mean (SD) ([1]; 0.40 mg/kg, Day 4 (40 Min)): 15.67 (13.932)
- CADSS total score, Median ([1]; 0.40 mg/kg, Day 4 (40 Min)): 10.00
- CADSS total score change from baseline, Mean (SD) [1, 14]: 15.67 (13.932)
- CADSS total score change from baseline, Median [1, 14]: 10.00
- CADSS total score, Mean (SD) ([1]; 0.40 mg/kg, Day 4 (Predose)): 0.19 (0.680)
- CADSS total score, Median ([1]; 0.40 mg/kg, Day 4 (Predose)): 0.00
- CADSS total score, Mean (SD) ([1]; 0.40 mg/kg, Day 5): 0.25 (0.550)
- CADSS total score, Median ([1]; 0.40 mg/kg, Day 5): 0.00
- CADSS total score change from baseline, Mean (SD) [1, 15]: 0.05 (0.759)
- CADSS total score change from baseline, Median [1, 15]: 0.00
- Time at which maximum mean overall BPRS and CADSS scores (CNS side effects) were observed ([1]; corresponding to the end of the infusion): 40 min
- Time point at which BPRS and CADSS scores returned back to baseline values ([1]; postdose, after the start of infusion): 4 h
- BPRS total score, Mean (SE) ([2]; Day 1 (4 Hour)): 0.00 (0.000)
- BPRS total score, Mean (SE) ([2]; Day 1 (15 Min.)): 1.91 (0.625)
- BPRS total score, Mean (SE) ([2]; Day 1 (30 Min.)): 3.10 (0.960)
- BPRS total score, Mean (SE) ([2]; Day 1 (40 Min.)): 4.33 (1.323)
- BPRS total score, Mean (SE) ([2]; Day 1 (Predose)): 0.09 (0.091)
- BPRS total score, Mean (SE) ([2]; Day 2): 0.00 (0.000)
- BPRS total score, Mean (SE) ([2]; Day 4 (2 Hour)): 0.43 (0.335)
- BPRS total score, Mean (SE) ([2]; Day 4 (4 Hour)): 0.29 (0.286)
- BPRS total score, Mean (SE) ([2]; Day 4 (15 Min.)): 1.90 (0.668)
- BPRS total score, Mean (SE) ([2]; Day 4 (30 Min.)): 3.32 (1.192)
- BPRS total score, Mean (SE) ([2]; Day 4 (40 Min.)): 3.16 (1.248)
- BPRS total score, Mean (SE) ([2]; Day 4 (Predose)): 0.05 (0.048)
- BPRS total score, Mean (SE) ([2]; Day 5): 0.00 (0.000)

Compound: CNC1(c2ccccc2Cl)CCCCC1=O (racemic) [ketamine]
- Onset of rapid antidepressant effect [3]: within two hours
